Source: PubChem BioAssay (NCI)
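Interpolation was linear, between the two tested concentrations surrounding the appropriate level; five concentrations were tested over 48 hours in 96-well plates. Abbreviation: GI50, concentration required for 50% inhibition of growth. TGI: total growth inhibition.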

What was measured:
Assay in all cases: NCI tumour cell line growth inhibition, 48 h
MDA-MB-231 breast = system: MDA-MB-231 breast
HL-60(TB) leukemia = system: HL-60(TB) leukemia
SK-MEL-5 melanoma = system: SK-MEL-5 melanoma
U251 CNS = system: U251 CNS
M14 melanoma = system: M14 melanoma
NCI-H460 lung = system: NCI-H460 lung
A498 renal = system: A498 renal
OVCAR-5 ovarian = system: OVCAR-5 ovarian
IGROV1 ovarian = system: IGROV1 ovarian
RPMI-8226 leukemia = system: RPMI-8226 leukemia
HOP-62 NSCLC = system: HOP-62 NSCLC
SK-OV-3 ovarian = system: SK-OV-3 ovarian
HCT-15 colon = system: HCT-15 colon
SW-620 colon = system: SW-620 colon
COLO 205 colon = system: COLO 205 colon
RXF 393 renal = system: RXF 393 renal
ACHN renal = system: ACHN renal
NCI-H23 lung = system: NCI-H23 lung
DU-145 prostate = system: DU-145 prostate
SNB-19 CNS = system: SNB-19 CNS
HCT-116 colon = system: HCT-116 colon
HS 578T breast = system: HS 578T breast
UO-31 renal = system: UO-31 renal
KM12 colon = system: KM12 colon
786-0 renal = system: 786-0 renal
HCC-2998 colon = system: HCC-2998 colon
NCI/ADR-RES ovarian = system: NCI/ADR-RES ovarian
NCI-H226 lung = system: NCI-H226 lung
HOP-92 NSCLC = system: HOP-92 NSCLC
LOX IMVI melanoma = system: LOX IMVI melanoma
K-562 leukemia = system: K-562 leukemia
OVCAR-8 ovarian = system: OVCAR-8 ovarian
SK-MEL-28 melanoma = system: SK-MEL-28 melanoma
MOLT-4 leukemia = system: MOLT-4 leukemia
MCF7 breast = system: MCF7 breast
OVCAR-4 ovarian = system: OVCAR-4 ovarian
PC-3 prostate = system: PC-3 prostate
NCI-H522 lung = system: NCI-H522 lung
TK-10 renal = system: TK-10 renal
T-47D breast = system: T-47D breast
BT-549 breast = system: BT-549 breast
A549 NSCLC = system: A549 NSCLC
SNB-75 CNS = system: SNB-75 CNS
SF-268 CNS = system: SF-268 CNS
HT29 colon = system: HT29 colon
EKVX NSCLC = system: EKVX NSCLC
MALME-3M melanoma = system: MALME-3M melanoma
SK-MEL-2 melanoma = system: SK-MEL-2 melanoma
SF-539 CNS = system: SF-539 CNS
SN12C renal = system: SN12C renal
UACC-257 melanoma = system: UACC-257 melanoma
UACC-62 melanoma = system: UACC-62 melanoma
CCRF-CEM leukemia = system: CCRF-CEM leukemia

Which results are given for `COc1ccc2c(c1)C(=O)c1c-2c(N(C)C)nc2ccccc12`?
GI50 (MDA-MB-231 breast): 77 µM; TGI (MDA-MB-231 breast): > 100 µM; GI50 (HL-60(TB) leukemia): > 100 µM; TGI (HL-60(TB) leukemia): > 100 µM; GI50 (SK-MEL-5 melanoma): > 100 µM; TGI (SK-MEL-5 melanoma): > 100 µM; GI50 (U251 CNS): > 100 µM; TGI (U251 CNS): > 100 µM; GI50 (M14 melanoma): > 100 µM; TGI (M14 melanoma): > 100 µM; GI50 (NCI-H460 lung): > 100 µM; TGI (NCI-H460 lung): > 100 µM; GI50 (A498 renal): > 100 µM; TGI (A498 renal): > 100 µM; GI50 (OVCAR-5 ovarian): > 100 µM; TGI (OVCAR-5 ovarian): > 100 µM; GI50 (IGROV1 ovarian): > 100 µM; TGI (IGROV1 ovarian): > 100 µM; GI50 (RPMI-8226 leukemia): > 100 µM; TGI (RPMI-8226 leukemia): > 100 µM; GI50 (HOP-62 NSCLC): > 100 µM; TGI (HOP-62 NSCLC): > 100 µM; GI50 (SK-OV-3 ovarian): > 100 µM; TGI (SK-OV-3 ovarian): > 100 µM; GI50 (HCT-15 colon): > 100 µM; TGI (HCT-15 colon): > 100 µM; GI50 (SW-620 colon): > 100 µM; TGI (SW-620 colon): > 100 µM; GI50 (COLO 205 colon): > 100 µM; TGI (COLO 205 colon): > 100 µM; GI50 (RXF 393 renal): > 100 µM; TGI (RXF 393 renal): > 100 µM; GI50 (ACHN renal): > 100 µM; TGI (ACHN renal): > 100 µM; GI50 (NCI-H23 lung): > 100 µM; TGI (NCI-H23 lung): > 100 µM; GI50 (DU-145 prostate): > 100 µM; TGI (DU-145 prostate): > 100 µM; GI50 (SNB-19 CNS): > 100 µM; TGI (SNB-19 CNS): > 100 µM; GI50 (HCT-116 colon): > 100 µM; TGI (HCT-116 colon): > 100 µM; GI50 (HS 578T breast): > 100 µM; TGI (HS 578T breast): > 100 µM; GI50 (UO-31 renal): > 100 µM; TGI (UO-31 renal): > 100 µM; GI50 (KM12 colon): > 100 µM; TGI (KM12 colon): > 100 µM; GI50 (786-0 renal): > 100 µM; TGI (786-0 renal): > 100 µM; GI50 (HCC-2998 colon): > 100 µM; TGI (HCC-2998 colon): > 100 µM; GI50 (NCI/ADR-RES ovarian): > 100 µM; TGI (NCI/ADR-RES ovarian): > 100 µM; GI50 (NCI-H226 lung): > 100 µM; TGI (NCI-H226 lung): > 100 µM; GI50 (HOP-92 NSCLC): 72.6 µM; TGI (HOP-92 NSCLC): > 100 µM; GI50 (LOX IMVI melanoma): > 100 µM; TGI (LOX IMVI melanoma): > 100 µM; GI50 (K-562 leukemia): > 100 µM; TGI (K-562 leukemia): > 100 µM; GI50 (OVCAR-8 ovarian): > 100 µM; TGI (OVCAR-8 ovarian): > 100 µM; GI50 (SK-MEL-28 melanoma): > 100 µM; TGI (SK-MEL-28 melanoma): > 100 µM; GI50 (MOLT-4 leukemia): > 100 µM; TGI (MOLT-4 leukemia): > 100 µM; GI50 (MCF7 breast): > 100 µM; TGI (MCF7 breast): > 100 µM; GI50 (OVCAR-4 ovarian): 90.2 µM; TGI (OVCAR-4 ovarian): > 100 µM; GI50 (PC-3 prostate): > 100 µM; TGI (PC-3 prostate): > 100 µM; GI50 (NCI-H522 lung): > 100 µM; TGI (NCI-H522 lung): > 100 µM; GI50 (TK-10 renal): 88.9 µM; TGI (TK-10 renal): > 100 µM; GI50 (T-47D breast): > 100 µM; TGI (T-47D breast): > 100 µM; GI50 (BT-549 breast): > 100 µM; TGI (BT-549 breast): > 100 µM; GI50 (A549 NSCLC): > 100 µM; TGI (A549 NSCLC): > 100 µM; GI50 (SNB-75 CNS): 57.6 µM; TGI (SNB-75 CNS): > 100 µM; GI50 (SF-268 CNS): 77.8 µM; TGI (SF-268 CNS): > 100 µM; GI50 (HT29 colon): > 100 µM; TGI (HT29 colon): > 100 µM; GI50 (EKVX NSCLC): > 100 µM; TGI (EKVX NSCLC): > 100 µM; GI50 (MALME-3M melanoma): > 100 µM; TGI (MALME-3M melanoma): > 100 µM; GI50 (SK-MEL-2 melanoma): > 100 µM; TGI (SK-MEL-2 melanoma): > 100 µM; GI50 (SF-539 CNS): > 100 µM; TGI (SF-539 CNS): > 100 µM; GI50 (SN12C renal): 95.3 µM; TGI (SN12C renal): > 100 µM; GI50 (UACC-257 melanoma): > 100 µM; TGI (UACC-257 melanoma): > 100 µM; GI50 (UACC-62 melanoma): > 100 µM; TGI (UACC-62 melanoma): > 100 µM; GI50 (CCRF-CEM leukemia): > 100 µM; TGI (CCRF-CEM leukemia): > 100 µM
